Results: publication PMC8577775, “Small molecule allosteric inhibitors of RORγt block Th17-dependent inflammation and associated gene expression in vivo” (PLoS ONE, 2021)

Legend:
[1] = tested on: Bclxl expression in the thymus; experiment: Bclxl expression in thymus after oral dosing (QPCR); format: in vivo, mouse; settings: 100 mg/kg PO, C57Bl/6 female mice; S5 Fig
Experimental: Supplementary file pone.0248034.s009.tif: S5 Fig RORγt inhibitors reduce Bclxl expression in thymus of rodents. C57Bl/6 female mice were dosed PO with 100 mg/kg Compound 1, 2 or 3. Thymic tissues were collected from separate cohorts at 2, 8, 16 and 24 hours post-dose (n = 3 mice/timepoint). RNA was extracted from thymic tissues and Bclxl expression measured by QPCR. […] Time zero (‘0’) used as normalization timepoint and set to 1.0 RQ and mean set at 100% for % inhibition calculation. One-way ANOVA with Bonferroni correction for multiple comparisons used for statistical significance calculations. (TIF) Click here for additional data file.

[2] = tested on: RORγt target genes in KP/C tumor samples; experiment: RORγt target gene expression in KP/C tumors (qPCR); format: in vivo, mouse
Experimental: For RNA isolation & gene expression, ears are collected on day 4 in RNAlater (Qiagen) and stored at 4°C until processed. Ears were homogenized using Procellys 24 homogenizer & hard tissue homogenizing beads (Bertin Instruments), 2 cycles of 30 seconds @ 6000 rpm in RLT lysis buffer according to manufacturer’s instructions. RNA was isolated using RNAeasy Plus MiniPrep columns (Qiagen) and cDNA generated using SuperScript VILO cDNA Synthesis kit (Invitrogen). Gene expression was quantified using TaqMan Fast Master Mix & and TaqMan FAM-MGB probe sets (Applied Biosystems): Gapdh, Mm99999915_g1, Il17a, Mm00439618_m1, Il17f, Mm00521423_m1, Il22, Mm01226722_g1 & Bclxl, Mm00437783_m1. QPCR reactions were run on QuantStudio 7 instrument. Relative quantification and fold changes were calculated using ddCT values against Gapdh and normalized to control-treated animals. For PDAC xenografts, RNA was isolated from tumor sections using Qiagen RNeasy kit (cat#74106), then cDNA was prepared using 2 μg of RNA and the high capacity RNA to cDNA kit (Applied Biosystems, cat#4387406) as per manufacturer’s instructions. Biomarker expression was determined using Taqman gene expression probes (S1 Table) and Universal master mix (ThermoFisher Scientific cat#4305719) with expression levels normalized to Gapdh. […]

PDAC PDO model T020P = experiment: In vitro organoid growth assay (CellTiter-Glo 3D), T020P; format: cell-based, human; settings: organoid growth assay, up to 30 μM
Experimental: (§1) Patient derived organoids were established as previously described. Briefly, PDX tumor chunks were minced then enzymatically digested into single cells by using a tumor dissociation Kit (Miltenyi, Cat# 130-095-929). Mouse and human cells were separated through magnetic separation, and isolated tumor cells were cultured on Matrigel-coated dishes. […]
(§2) Organoids were isolated and dissociated as described above. Cell numbers were counted by trypan blue exclusion and 5000 cells per well were plated on the Matrigel coated and pre-warmed 96-well plates. […] 100 μl of CellTiter-Glo® 3D reagent (Promega cat# G9682) was added to each well after desired time points and luminescence signal measured after 30 minutes.
(§3) Supplementary file pone.0248034.s010.tif: S6 Fig Schematic of Patient-derived organoids (PDO) growth & formation assays. […] After the indicated treatment schedule organoid growth or formation was assessed by CTG assay. […]

PDAC PDO model T031P = experiment: In vitro organoid growth assay (CellTiter-Glo 3D), T031P; format: cell-based, human; settings: 30 μM, 120 hours of treatment
Experimental: as §1, §2, §3

## O=C(O)[C@@H]1CCC(c2nn(C(=O)c3c(Cl)cccc3C(F)(F)F)c3cccc(F)c23)=C[C@H]1O [Compound 3]
[1]
  Bclxl expression in the thymus: modulation of Bclxl expression in the thymus
[2]; all treatment groups (alone or with gemcitabine)
  Klf7 and Osmr expression in tumors: decreased in all treatment groups
[2]; combination of Compound 3 and gemcitabine
  Msi2 expression in tumors: significant decrease
PDAC PDO model T020P
  viability of T020P PDOs: did not decrease viability
PDAC PDO model T031P
  decrease of organoid growth: ~ 30%
